Publication PMC9374667 (Communications Biology, 2022)
“And” between values parts separate entries of the source, which are not always exact repeats. Equal entries are not always repeated.

How the values were obtained:
db/db mice [1] = experiment: Fasting serum insulin levels (ELISA); assay type: in vivo; parameters: insulin level (Figure 5b): unit not given here; conditions: db/db mice
Description: (§1) Mice were fasted for 4 h for insulin resistance test and intraperitoneally injected with 1 unit/kg of insulin. Blood glucose levels were measured from the tail vein blood at 0, 15, 30, 45, 60, 90, and 120 min after injection. Plasma insulin levels were measured using an ultrasensitive mouse insulin ELISA kit (Nanjing Jiancheng Bioengineering Institute, Nanjing, China).

db/db mice [2] = experiment: Insulin tolerance test (ITT), AUC and initial slope; assay type: in vivo; parameters: blood glucose AUC: unit not given here; conditions: BBR 150mg/kg; for blood glucose level: in mmol/L (unit assumed)
Description: as §1

db/db mice [3] = experiment: HE staining of epididymal adipose tissue, adipocyte size; assay type: in vivo
Description: The adipose tissue was fixed overnight in 4% paraformaldehyde, then embedded in paraffin and cut into 5 µm thick slices. Tissue sections were stained with hematoxylin and eosin (H&E). For immunohistochemistry, sections were incubated with primary antibodies against F4/80 (1:100 dilution) diluted in the blocking solution at 4 °C overnight. The tissue sections were then incubated with the horseradish peroxidase (HRP)-conjugated secondary antibody at room temperature for 2 h. Finally, the sections were developed with diaminobenzidine (DAB) and counterstained with hematoxylin. Images were obtained under a microscope. To quantify the F4/80-positive macrophages, two random fields per sample were analyzed by Image J software. The IHC profiler plugin of ImageJ was used to calculate the F4/80 positive area.

db/db mice [4] = experiment: Weekly fasting glucose levels of db/db mice; assay type: in vivo; conditions: for Weekly fasting glucose levels of db/db mice (Figure 5a): BBR 150mg/kg, individual mice 1-10, in mmol/L
Description: The lean wild type control and the db/db control mice were given equal vehicle volume (0.5% CMC-Na solution). All mice were monitored for food intake, body weight, and fasting blood glucose during the 35-day trial. Glucose tolerance test (GTT) and insulin resistance test (ITT) were performed at 4 and 5 weeks of treatment, respectively. Metabolic analysis was performed at 5 weeks of treatment. At the end of the study, blood samples were taken through the retroorbital venous sinus of mice, fat depots (brown fat, inguinal subcutaneous fat, epididymal fat, perirenal fat and mesenteric fat depot) were dissected, weighed, and immediately frozen in liquid nitrogen and stored at −80 °C until required. Weight of fat depots are expressed in percentage (fat depots weight /bodyweight * 100%).

[5] = pH of the solution after 24 hours of the dissolution test; assay type: physicochemical
Description: Solubilities were determined by adding excess sample to 30 mL different mediums, such as HCl solution, acetate buffer, phosphate buffer, SGF, FaSSIF and FeSSIF. The configuration of various buffer solutions is shown in Supplementary Table 2. After being shaken at 400 rpm at 37 °C for 0.5, 1, 2, and 24 h, 0.3 mL of suspension was sampled and centrifuged at 14,000 rpm for 8 min to isolate mother liquor, and then analyzed by HPLC after dilution. All samples were analyzed in triplicate. […]
into a 1000 mL flask followed by addition of about 800 mL of deionized water. The mixture is stirred until all solids are dissolved.
Add about 100 mL of 0.1 N HCl, check pH value with a pH meter and adjust the pH to 2.0 with HCl (1 N) or NaOH (1 N). Then dilute to the volume with deionized water.
* 1N sodium hydroxide: Weigh 8 g NaOH in a 200 mL plastic volumetric flask, add deionized water to volume and mix well. […]
phosphate and 3.093 g sodium chloride in a 500 mL volumetric flask, add about 0.450 L deionized water, and adjust the pH to 6.5 with 1N sodium hydroxide or 1 N hydrochloric acid. Make up to volume (0.5 […]
Step 2: Place and dissolve 1.120 g FaSSIF/FeSSIF/FaSSGF instant powder with 0.250 L of buffer (from step 1) in a 500 mL volumetric flask, then add buffer (from step 1) to volume, and mix well. […]
g sodium chloride in a 500 mL volumetric flask, add about 0.450 L deionized water, and adjust the pH to 5.0 with 1 N sodium hydroxide or 1 N hydrochloric acid. Make up to volume (500 mL) with
Step 2: Place and dissolve 5.600 g FaSSIF/FeSSIF/FaSSGF instant […]
0.750 L deionized water. Make up to volume (1000 mL) with deionized water and placed overnight.
(1 picture or pasted object on this page, not shown here)

[6] = In vitro dissolution studies: dynamic solubility in buffers and simulated biological fluids; assay type: physicochemical; parameters: BBR dissolved in CMC-Na (Figure S7a) / Ibu dissolved in CMC-Na (Figure S7b): unit not given here; conditions: mean; for solubility at 0.5 h / solubility at 1 h / solubility at 2 h / solubility at 24 h: 37 °C
Description: Solubilities were determined by adding excess sample to 30 mL different mediums, such as HCl solution, acetate buffer, phosphate buffer, SGF, FaSSIF and FeSSIF. The configuration of various buffer solutions is shown in Supplementary Table 2. After being shaken at 400 rpm at 37 °C for 0.5, 1, 2, and 24 h, 0.3 mL of suspension was sampled and centrifuged at 14,000 rpm for 8 min to isolate mother liquor, and then analyzed by HPLC after dilution. All samples were analyzed in triplicate.

[7] = FaSSIF-V1 (fasted state simulated intestinal fluid), thermodynamic from solid, FaSSIF-V1 (pH 6.5)
[8] = FaSSIF-V1 (fasted state simulated intestinal fluid), FaSSIF-V1 (pH 6.5)
[9] = FeSSIF-V1 (fed state simulated intestinal fluid), thermodynamic from solid, FeSSIF-V1 (pH 5.0)
[10] = SGF (simulated gastric fluid), simulated gastric fluid, thermodynamic from solid, SGF (pH 2.0)
[11] = simulated gastric fluid, thermodynamic from solid, HCl solution (pH 1.0)

## COc1ccc2cc3[n+](cc2c1OC)CCc1cc2c(cc1-3)OCO2 [BBR, Berberine chloride dihydrate]
db/db mice [1]; BBR 150mg/kg, fasting serum, individual mice 1-6
  insulin level (Figure 5b): 14.8249 and 14.5179 and 14.1979 and 10.7342 and 12.3345 and 12.7422
db/db mice [1]; 150 mg/kg, 35 days of treatment, vs vehicle
  Fasting serum insulin levels: did not produce significant effects
db/db mice [2]; individual mice, time column 1 of 7 (time not printed)
  blood glucose level: 19.2 and 16.4 and 9.2 and 15.3 and 9.5 and 19.6 and 19.0 and 21.8 and 10.2
db/db mice [2]; individual mice, time column 2 of 7 (time not given)
  blood glucose level: 18.1 and 16.0 and 9.1 and 15.7 and 11.1 and 18.6 and 18.3 and 22.5 and 13.5
db/db mice [2]; individual mice, time column 3 of 7 (time not given)
  blood glucose level: 14.4 and 12.6 and 7.4 and 12.2 and 7.9 and 18.7 and 13.6 and 19.0 and 15.5 and 10.0
db/db mice [2]; individual mice, time column 4 of 7 (time not given)
  blood glucose level: 12.3 and 9.3 and 4.0 and 8.5 and 6.8 and 15.1 and 11.8 and 17.7 and 13.7 and 6.9
db/db mice [2]; individual mice, time column 5 of 7 (time not given)
  blood glucose level: 10.3 and 9.1 and 4.5 and 8.8 and 7.2 and 13.0 and 10.2 and 17.4 and 10.8 and 7.5
db/db mice [2]; individual mice, time column 6 of 7 (time not given)
  blood glucose level: 11.7 and 9.8 and 3.9 and 8.9 and 7.6 and 15.8 and 11.2 and 20.0 and 12.2 and 8.2
db/db mice [2]; individual mice, time column 7 of 7 (time not printed)
  blood glucose level: 11.0 and 10.0 and 4.1 and 9.3 and 6.7 and 17.4 and 10.3 and 19.0 and 11.5 and 7.3
db/db mice [2]; Figure 5f, individual mice
  blood glucose AUC: 948.75 and 1960.5 and 1518 and 2328 and 1638 and 1056.75 and 1563.75 and 1340.25 and 656.25 and 1265.25
db/db mice [2]; db/db mice, individual animals (Figure S10a)
  Initial Slope: -0.0533 mmol/L/min and -0.03 mmol/L/min and -0.18 mmol/L/min and -0.0933 mmol/L/min and -0.1367 mmol/L/min and -0.0067 mmol/L/min and -0.16 mmol/L/min and -0.1267 mmol/L/min and -0.06 mmol/L/min and -0.1033 mmol/L/min
db/db mice [3]; 150 mg/kg, individual cells
  Cell diameter (adipocyte size of eWAT): 112.956 µm and 111.168 µm and 109.684 µm and 107.318 µm and 103.404 µm and 102.799 µm and 102.56 µm and 100.649 µm and 97.9486 µm and 97.2359 µm and 94.5814 µm and 93.4958 µm and 92.5409 µm and 90.4031 µm and 87.905 µm and 126.009 µm and 123.446 µm and 119.401 µm and 113.9 µm and 113.401 µm
db/db mice [3]; BJ 75 and 150 mg/kg, BBR 150 mg/kg, Ibu 150 mg/kg
  Size of adipocytes in eWAT compared with vehicle: significantly reduced
db/db mice [4]; 1st of 6 weekly columns (time not given)
  Weekly fasting glucose levels of db/db mice (Figure 5a): 17.4 and 11.5 and 21.8 and 12.0 and 11.7 and 15.7 and 14.9 and 17.1
db/db mice [4]; 2nd of 6 weekly columns (time not given)
  Weekly fasting glucose levels of db/db mice (Figure 5a): 26.2 and 16.0 and 21.2 and 18.4 and 15.0 and 21.3 and 21.6 and 19.3 and 16.9
db/db mice [4]; 3rd of 6 weekly columns (time not given)
  Weekly fasting glucose levels of db/db mice (Figure 5a): 23.6 and 18.7 and 19.5 and 20.6 and 21.5 and 23.7 and 13.1 and 20.7 and 20.5
db/db mice [4]; 4th of 6 weekly (time not given)
  Weekly fasting glucose levels of db/db mice (Figure 5a): 19.5 and 14.4 and 15.7 and 19.0 and 17.0 and 19.2 and 9.3 and 10.1 and 18.3 and 13.0
db/db mice [4]; 5th of 6 weekly (time not given)
  Weekly fasting glucose levels of db/db mice (Figure 5a): 18.5 and 10.1 and 10.6 and 12.8 and 13.2 and 9.4 and 10.5 and 8.4 and 10.7 and 13.3
db/db mice [4]; 6th of 6 weekly (time not given)
  Weekly fasting glucose levels of db/db mice (Figure 5a): 15.5 and 9.3 and 11.4 and 15.8 and 10.5 and 10.2 and 10.0 and 9.8 and 13.5
db/db mice [4]; db/db mice, 150 mg/kg, vehicle rose from 14.4 ± 3.4 to 23.9 ± 3.4
  Fasting blood glucose level at the end of the treatment: 11.6 ± 2.4 mmol/L
db/db mice [4]; db/db mice, BJ 75 and 150 mg/kg, BBR 150 mg/kg, Ibu 150 mg/kg
  Blood (serum) glucose levels compared with vehicle: slowed the increase in glucose levels
[5]; Acetate buffer, blank vehicle 4.54
  pH of the solution after 24 hours: 4.57
[5]; CMC-Na, blank vehicle 6.51
  pH of the solution after 24 hours: 6.20
[5]; FaSSIF-v1, blank vehicle 6.51
  pH of the solution after 24 hours: 6.54
[5]; FeSSIF-v1, blank vehicle 5.04
  pH of the solution after 24 hours: 5.03
[5]; HCl solution, blank vehicle 1.08
  pH of the solution after 24 hours: 1.05
[5]; Phosphate buffer, blank vehicle 6.84
  pH of the solution after 24 hours: 6.90
[5]; SGF, blank vehicle 2.03
  pH of the solution after 24 hours: 2.07
[6]; Acetate buffer (pH 4.5)
  solubility at 0.5 h: 2080 µg/mL
  solubility at 1 h: 2070 µg/mL
  solubility at 2 h: 1540 µg/mL
  solubility at 24 h: 1540 µg/mL
[6]; time 0.5
  BBR dissolved in CMC-Na (Figure S7a): 1.991
[6]; time 1
  BBR dissolved in CMC-Na (Figure S7a): 2.188
[6]; time 2
  BBR dissolved in CMC-Na (Figure S7a): 2.102
[6]; time 24
  BBR dissolved in CMC-Na (Figure S7a): 2.4551
[6]; [7]
  solubility at 0.5 h: 151 µg/mL
  solubility at 24 h: 64.1 µg/mL
[6]; [8]
  solubility at 1 h: 126 µg/mL
  solubility at 2 h: 87.2 µg/mL
[6]; [9]
  solubility at 0.5 h: 137 µg/mL
  solubility at 2 h: 73.3 µg/mL
  solubility at 24 h: 63.1 µg/mL
[6]; FeSSIF-V1 (fed state simulated intestinal fluid), FeSSIF-V1 (pH 5.0)
  solubility at 1 h: 107 µg/mL
[6]; HCl solution (pH 1.0)
  solubility at 2 h: 106 µg/mL
  solubility at 24 h: 81.1 µg/mL
[6]; Phosphate buffer (pH 6.8)
  solubility at 0.5 h: 2290 µg/mL
  solubility at 1 h: 2380 µg/mL
  solubility at 2 h: 1790 µg/mL
  solubility at 24 h: 1950 µg/mL
[6]; [10]
  solubility at 0.5 h: 172 µg/mL
  solubility at 1 h: 175 µg/mL
  solubility at 2 h: 140 µg/mL
[6]; SGF (simulated gastric fluid), SGF (pH 2.0)
  solubility at 24 h: 110 µg/mL
[6]; [11]
  solubility at 0.5 h: 137 µg/mL
  solubility at 1 h: 146 µg/mL
